This note sets out measurements from patent US4443605A, “7β-Arylalkyl-6α, 7 α-oxymethylene-3-methoxy or 3-hydroxy-4, 5α-epoxy-17 methyl or 17-cycloalkyl-methyl morphinans” (Miles Laboratories, Inc., priority 1982, dated 1984).

Read-outs that look alike come from different tables or passages of the source.

For this assay, the system named is mice. The assay can be described thus: Acetic Acid Induced Mouse Writhing Test. In kind it is in vivo, mouse (male CD-1). The conditions noted are these: for ED50: sc. The procedure:
Analgesic effects of the test compounds were determined in mice by use of the acetic acid induced writhing test described by B. A. Whittle, Brit. J. Pharmacol., 22:246 (1964). In this test, at least 3 groups of 5 male CD-1 mice each were given subcutaneous doses of the test drug dissolved in distilled water. In all cases, 0.4 mL of a 0.5% v/v acetic acid in distilled water solution was administered intraperitoneally 15 min. post drug. The number of writhes in a 20 min. interval beginning 5 min. after the acetic acid injection were determined and compared with the number of writhes in a control group which had received only acetic acid.
Percent inhibition of writhing was calculated as: [formula]
The ED50 dose, i.e., the dose required to reduce the number of writhes by 50%, was determined graphically from a plot of % inhibition as a probit verus log dose. […] See Lichtfield, J. T. and Wilcoxon, F., J. Pharmacol. Exp. Ther., 96, 99-113 (1949).
The results of this testing, both in terms of μ mole/kg and mg/kg of the compound tested, are set out in table I.
In general terms: An intraperitoneal irritant provokes the stretching counted in writhing tests.

Where [1] appears, read: 0.25 h, Analgesic Activity In Mouse Writhing Assay - Subcutaneous Inj., acetic acid i.p. 15 min post drug, * = d-tartrate salt, read-out: ED50 (mg/kg).
Setting [2] is: 0.25 h, Analgesic Activity In Mouse Writhing Assay - Subcutaneous Inj., acetic acid i.p. 15 min post drug, * = d-tartrate salt, read-out: ED50 (μmole/kg).

On to `COc1ccc2c3c1O[C@H]1[C@@H]4OC[C@]4(CCCCc4ccccc4)C[C@H]4[C@@H](C2)N(C)CC[C@@]341` [Compound 8, 4,5α-Epoxy-3-methoxy-17-methyl-7α-(4-phenylbutyl)-6β,7β-(oxymethylene)-morphinan], for which the “activity in the acetic acid induced writhing assay” value (at 10 mg/kg) was “inactive”.

For the compound `COc1ccc2c3c1O[C@H]1[C@H]4OC[C@@]4(CCc4ccccc4)C[C@H]4[C@@H](C2)N(C)CC[C@@]341` [Compound 17c], the ED50 reads like this: under setting [1], 0.5 mg/kg; under setting [2], 0.9 µmol/kg.

Regarding `COc1ccc2c3c1O[C@H]1[C@H]4OC[C@@]4(CCCc4ccccc4)C[C@H]4[C@@H](C2)N(C)CC[C@@]341` [Compound 17d], the ED50 came to 0.027 mg/kg under setting [1] and 0.046 µmol/kg under setting [2].

Regarding `COc1ccc2c3c1O[C@H]1[C@H]4OC[C@@]4(CCCCc4ccccc4)C[C@H]4[C@@H](C2)N(C)CC[C@@]341` [Compound 17e], the ED50 (Mus musculus, acetic acid induced writhing assay, contrasted with compound 8, read-out: ED50 in the same assay) was 0.003 mg/kg; the ED50 under setting [1] came out at 0.0028 mg/kg; the ED50 under setting [2] is 0.005 µmol/kg.

For `COc1ccc2c3c1O[C@H]1[C@H]4OC[C@@]4(CCCCCc4ccccc4)C[C@H]4[C@@H](C2)N(C)CC[C@@]341` [Compound 17f], the ED50 runs as follows: under setting [1], 0.82 mg/kg; under setting [2], 1.3 µmol/kg.

Consider `CN1CC[C@]23c4c5ccc(O)c4O[C@H]2[C@H]2OC[C@@]2(CCc2ccccc2)C[C@H]3[C@H]1C5` [Compound 20c], for which the ED50 was 0.024 mg/kg under setting [1] and 0.048 µmol/kg under setting [2].

For `CN1CC[C@]23c4c5ccc(O)c4O[C@H]2[C@H]2OC[C@@]2(CCCc2ccccc2)C[C@H]3[C@H]1C5` [Compound 20d], the ED50 by setting is: under setting [1], 0.011 mg/kg; under setting [2], 0.019 µmol/kg.

As to `CN1CC[C@]23c4c5ccc(O)c4O[C@H]2[C@H]2OC[C@@]2(CCCCc2ccccc2)C[C@H]3[C@H]1C5` [Compound 20e], the ED50 worked out at 0.014 mg/kg under setting [1] and 0.024 µmol/kg under setting [2].

With `CN1CC[C@]23c4c5ccc(O)c4O[C@H]2[C@H]2OC[C@@]2(CCCCCc2ccccc2)C[C@H]3[C@H]1C5` [Compound 20f], the ED50 reads like this: under setting [1], 0.017 mg/kg; under setting [2], 0.028 µmol/kg.

On to `COc1ccc2c3c1O[C@H]1[C@H]4OC[C@@]4(CCc4ccccc4)C[C@H]4[C@@H](C2)N(CC2CCC2)CC[C@@]341` [Compound 23Bc], for which the ED50 is above 10 mg/kg under setting [1] and above 16 µmol/kg under setting [2].

With `COc1ccc2c3c1O[C@H]1[C@H]4OC[C@@]4(CCCc4ccccc4)C[C@H]4[C@@H](C2)N(CC2CCC2)CC[C@@]341` [Compound 23Bd], the ED50 stood at 2.8 mg/kg under setting [1] and 4.4 µmol/kg under setting [2].

As for `COc1ccc2c3c1O[C@H]1[C@H]4OC[C@@]4(CCCCc4ccccc4)C[C@H]4[C@@H](C2)N(CC2CCC2)CC[C@@]341` [Compound 23Be], the ED50 came out at 1.8 mg/kg under setting [1] and 2.8 µmol/kg under setting [2].

For `COc1ccc2c3c1O[C@H]1[C@H]4OC[C@@]4(CCc4ccccc4)C[C@H]4[C@@H](C2)N(CC2CC2)CC[C@@]341` [Compound 23Pc], the ED50 came out at 0.26 mg/kg under setting [1] and 0.57 µmol/kg under setting [2].

Take `COc1ccc2c3c1O[C@H]1[C@H]4OC[C@@]4(CCCc4ccccc4)C[C@H]4[C@@H](C2)N(CC2CC2)CC[C@@]341` [Compound 23Pd]: the ED50 runs as follows: under setting [1], 0.67 mg/kg; under setting [2], 1.07 µmol/kg.

`COc1ccc2c3c1O[C@H]1[C@H]4OC[C@@]4(CCCCc4ccccc4)C[C@H]4[C@@H](C2)N(CC2CC2)CC[C@@]341` [Compound 23Pe]: the ED50 under setting [1] worked out at 0.39 mg/kg and the ED50 under setting [2] is 0.61 µmol/kg.

Take `Oc1ccc2c3c1O[C@H]1[C@H]4OC[C@@]4(CCc4ccccc4)C[C@H]4[C@@H](C2)N(CC2CCC2)CC[C@@]341` [Compound 24Bc]: the ED50 under setting [1] stood at 0.177 mg/kg and the ED50 under setting [2] came out at 0.39 µmol/kg.

With `Oc1ccc2c3c1O[C@H]1[C@H]4OC[C@@]4(CCCc4ccccc4)C[C@H]4[C@@H](C2)N(CC2CCC2)CC[C@@]341` [Compound 24Bd], the ED50 was determined as 0.0375 mg/kg under setting [1] and 0.06 µmol/kg under setting [2].

Turning to `Oc1ccc2c3c1O[C@H]1[C@H]4OC[C@@]4(CCCCc4ccccc4)C[C@H]4[C@@H](C2)N(CC2CCC2)CC[C@@]341` [Compound 24Be], the ED50 turned out to be 0.22 mg/kg under setting [1] and 0.05 µmol/kg under setting [2].

As to `Oc1ccc2c3c1O[C@H]1[C@H]4OC[C@@]4(CCc4ccccc4)C[C@H]4[C@@H](C2)N(CC2CC2)CC[C@@]341` [Compound 24Pc], the ED50 under setting [1] amounted to 0.018 mg/kg and the ED50 under setting [2] amounted to 0.04 µmol/kg.

Consider `Oc1ccc2c3c1O[C@H]1[C@H]4OC[C@@]4(CCCc4ccccc4)C[C@H]4[C@@H](C2)N(CC2CC2)CC[C@@]341` [Compound 24Pd], for which the ED50 is, setting by setting: under setting [1], 0.0015 mg/kg; under setting [2], 0.003 µmol/kg.

Turning to `Oc1ccc2c3c1O[C@H]1[C@H]4OC[C@@]4(CCCCc4ccccc4)C[C@H]4[C@@H](C2)N(CC2CC2)CC[C@@]341` [Compound 24Pe], the ED50 worked out at 0.01 mg/kg under setting [1] and 0.015 µmol/kg under setting [2].
